Toxic doses and inconclusive results are not listed. Rule as the data show it: active = T/C of 150% or more; inactive = T/C below 125%.
System: L1210 leukemia ip in BDF1 mice, survival T/C
Assay: NCI In Vivo Anticancer Drug Screen. Data for tumor model L1210 Leukemia (intraperitoneal) in B6D2F1 (BDF1) mice
Conditions: endpoint: mean survival time, higher = longer survival
Method in brief: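 Survival endpoint. Drug-treated group vs vehicle group, expressed as T divided by C. Tumor passaged by transplantation.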

[1] = dose: 100.0 mg/kg/injection, schedule: Q01DX001 (ip), vehicle: carboxymethylcellulose (CMC)
[2] = dose: 200.0 mg/kg/injection, schedule: Q01DX001 (ip), vehicle: carboxymethylcellulose (CMC)
[3] = dose: 400.0 mg/kg/injection, schedule: Q01DX001 (ip), vehicle: carboxymethylcellulose (CMC)
[4] = dose: 100.0 mg/kg/injection, schedule: Q01DX009 (ip), vehicle: Klucel (hydroxypropylcellulose) (HPC)
[5] = dose: 200.0 mg/kg/injection, schedule: Q01DX009 (ip), vehicle: Klucel (hydroxypropylcellulose) (HPC)
[6] = dose: 100.0 mg/kg/injection, schedule: Q04DX002 (ip), vehicle: saline with Tween-80
[7] = dose: 200.0 mg/kg/injection, schedule: Q04DX002 (ip), vehicle: saline with Tween-80
[8] = dose: 400.0 mg/kg/injection, schedule: Q04DX002 (ip), vehicle: saline with Tween-80
[9] = dose: 100.0 mg/kg/injection, schedule: Q01DX001 (ip), vehicle: saline
[10] = dose: 200.0 mg/kg/injection, schedule: Q01DX001 (ip), vehicle: saline
[11] = dose: 400.0 mg/kg/injection, schedule: Q01DX001 (ip), vehicle: saline
[12] = dose: 100.0 mg/kg/injection, schedule: Q04DX003 (ip), vehicle: Klucel (hydroxypropylcellulose) (HPC)
[13] = dose: 200.0 mg/kg/injection, schedule: Q04DX003 (ip), vehicle: Klucel (hydroxypropylcellulose) (HPC)
[14] = dose: 400.0 mg/kg/injection, schedule: Q01DX009 (ip), vehicle: Klucel (hydroxypropylcellulose) (HPC)
[15] = dose: 400.0 mg/kg/injection, schedule: Q04DX003 (ip), vehicle: Klucel (hydroxypropylcellulose) (HPC)

Measured: T/C

CCNC(=O)CC#N
inactive: [1] 102 % of control | [2] 91 % of control | [3] 108 % of control

Nc1ncnc2nc(-c3ccc(-c4ccccc4)cc3)[nH]c12
inactive: dose: 50.0 mg/kg/injection, schedule: Q01DX001 (ip), vehicle: Klucel (hydroxypropylcellulose) (HPC) 92 % of control | dose: 100.0 mg/kg/injection, schedule: Q01DX001 (ip), vehicle: Klucel (hydroxypropylcellulose) (HPC) 88 % of control | dose: 200.0 mg/kg/injection, schedule: Q01DX001 (ip), vehicle: Klucel (hydroxypropylcellulose) (HPC) 97 % of control

CC([NH-])CO.CC([NH-])CO.[Cu+2] (stereo not given)
inactive: dose: 12.5 mg/kg/injection, schedule: Q01DX001 (ip), vehicle: saline 97 % of control | dose: 25.0 mg/kg/injection, schedule: Q01DX001 (ip), vehicle: saline 108 % of control

O=C(/C=C(\C(=O)c1ccccc1)c1ccccc1)c1ccc(Cl)cc1
inactive: dose: 50.0 mg/kg/injection, schedule: Q01DX009 (ip), vehicle: Klucel (hydroxypropylcellulose) (HPC) 103 % of control | dose: 75.0 mg/kg/injection, schedule: Q01DX001 (ip), vehicle: Klucel (hydroxypropylcellulose) (HPC) 100 % of control | [4] 92 % of control | dose: 150.0 mg/kg/injection, schedule: Q01DX001 (ip), vehicle: Klucel (hydroxypropylcellulose) (HPC) 95 % of control | [5] 94 % of control | dose: 300.0 mg/kg/injection, schedule: Q01DX001 (ip), vehicle: Klucel (hydroxypropylcellulose) (HPC) 108 % of control

[CH3][Ge]([CH3])([CH3])[CH2]CCl
inactive: [6] 98 % of control | [7] 91 % of control | [8] 98 % of control

CCCCCCCCCCCCCCNC(=O)Nc1ccc(Cl)c(Cl)c1
inactive: [9] 95 % of control | [10] 92 % of control | [11] 95 % of control

Cc1ccc(N)cc1NC(=O)c1ccccc1
inactive: [1] 106 % of control | [2] 94 % of control | [3] 108 % of control

O=C(Nc1ccc(F)cc1)C(c1ccccc1)c1ccccc1
inactive: [4] 108 % of control | [12] 90 % of control | [5] 101 % of control | [13] 93 % of control | [14] 95 % of control | [15] 88 % of control

Cc1ccc(S(=O)(=O)N(c2cc([N+](=O)[O-])ccc2Br)S(=O)(=O)c2ccc(C)cc2)cc1
inactive: [6] 88 % of control | [7] 98 % of control | [8] 88 % of control

C=C(C)COC(N)=O
inactive: dose: 100.0 mg/kg/injection, schedule: Q01DX009 (ip), vehicle: saline with Tween-80 95 % of control | dose: 100.0 mg/kg/injection, schedule: Q04DX003 (ip), vehicle: saline with Tween-80 102 % of control | dose: 200.0 mg/kg/injection, schedule: Q01DX009 (ip), vehicle: saline with Tween-80 96 % of control | dose: 200.0 mg/kg/injection, schedule: Q04DX003 (ip), vehicle: saline with Tween-80 102 % of control | dose: 400.0 mg/kg/injection, schedule: Q01DX009 (ip), vehicle: saline with Tween-80 91 % of control | dose: 400.0 mg/kg/injection, schedule: Q04DX003 (ip), vehicle: saline with Tween-80 103 % of control

COC(=O)c1cccc([N+](=O)[O-])c1
inactive: [9] 96 % of control | [10] 94 % of control | [11] 100 % of control

O=C(Nc1ccc(Cl)c(Cl)c1)Oc1ccc2ccccc2c1
inactive: [4] 90 % of control | [12] 104 % of control | [5] 101 % of control | [13] 90 % of control | [14] 95 % of control | [15] 90 % of control

COc1ccc2c(c1)c1c(C)c3cnccc3c(C)c1n2CCCN
inactive: dose: 0.5 mg/kg/injection, schedule: Q01DX009 (ip), vehicle: saline 96 % of control | dose: 1.0 mg/kg/injection, schedule: Q01DX009 (ip), vehicle: saline 102 % of control | dose: 3.0 mg/kg/injection, schedule: Q01DX009 (ip), vehicle: saline 104 % of control | dose: 3.0 mg/kg/injection, schedule: Q04DX003 (ip), vehicle: saline 104 % of control | dose: 6.0 mg/kg/injection, schedule: Q01DX009 (ip), vehicle: saline 112 % of control | dose: 6.0 mg/kg/injection, schedule: Q04DX003 (ip), vehicle: saline 104 % of control | dose: 12.0 mg/kg/injection, schedule: Q01DX009 (ip), vehicle: saline 106 % of control | dose: 12.0 mg/kg/injection, schedule: Q04DX003 (ip), vehicle: saline 107 % of control

Source: PubChem BioAssay AID248 (DTP/NCI, 2004)
